Organism: Rattus norvegicus
Assay: DrugMatrix - Regimen: Daily Repeat
Assay type: toxicity, organism-based, Sprague-Dawley
Set-up: regimen Daily Repeat, gender Male, age 6-8 weeks
Settings: in vivo, po, route oral GAVAGE, vehicle 100 % WATER
[1] = 0 mg/kg, 72 h, tissue Blood, dose level Control, time 3 day
[2] = 0 mg/kg, 72 h, tissue Plasma, dose level Control, time 3 day
[3] = 0 mg/kg, 120 h, tissue Blood, dose level Control, time 5 day
[4] = 0 mg/kg, 120 h, tissue Plasma, dose level Control, time 5 day
[5] = 24 mg/kg, 72 h, tissue Blood, dose level Low, time 3 day
[6] = 24 mg/kg, 72 h, tissue Plasma, dose level Low, time 3 day
[7] = 24 mg/kg, 120 h, tissue Blood, dose level Low, time 5 day
[8] = 24 mg/kg, 120 h, tissue Plasma, dose level Low, time 5 day

COLISTIN
BASOPHIL [1]: 0%
EOSINOPHIL [1]: 0.5%
ERYTHROCYTE COUNT [1]: 5.8 x10E6/uL
HEMATOCRIT [1]: 35.07%
LEUKOCYTE COUNT [1]: 13.7 x10E3/uL
MEAN CORPUSCULAR HEMOGLOBIN [1]: 24.38 pg
MEAN CORPUSCULAR HEMOGLOBIN CONCENTRATION [1]: 40.28 G/DL
MONOCYTE [1]: 2.67%
NEUTROPHIL [1]: 14.5%
PLATELET COUNT [1]: 911.5 x10E3/uL
ALANINE AMINOTRANSFERASE [2]: 36.83 u/L
ALKALINE PHOSPHATASE [2]: 399.83 u/L
ASPARTATE AMINOTRANSFERASE [2]: 66 u/L
BLOOD UREA NITROGEN [2]: 14.67 mg/dL
CHOLESTEROL [2]: 66.33 mg/dL
CREATINE PHOSPHOKINASE [2]: 139.5 u/L
CREATININE [2]: 0.92 mg/dL
GLUCOSE [2]: 175 mg/dL
PHOSPHORUS [2]: 11.42 mg/dL
TOTAL BILIRUBIN [2]: 1.13 mg/dL
TOTAL PROTEIN [2]: 6.87 G/DL
BASOPHIL [3]: 0%
EOSINOPHIL [3]: 0.2%
ERYTHROCYTE COUNT [3]: 6.02 x10E6/uL
LEUKOCYTE COUNT [3]: 12.34 x10E3/uL
LYMPHOCYTE [3]: 83%
MEAN CORPUSCULAR HEMOGLOBIN [3]: 23.92 pg
MEAN CORPUSCULAR VOLUME [3]: 60.66 fL
MONOCYTE [3]: 3%
NEUTROPHIL [3]: 13.8%
PLATELET COUNT [3]: 1190.6 x10E3/uL
ALANINE AMINOTRANSFERASE [4]: 43 u/L
ALKALINE PHOSPHATASE [4]: 393 u/L
ASPARTATE AMINOTRANSFERASE [4]: 62.33 u/L
CHOLESTEROL [4]: 65.5 mg/dL
CREATINE PHOSPHOKINASE [4]: 130.67 u/L
CREATININE [4]: 0.58 mg/dL
GLUCOSE [4]: 180.67 mg/dL
PHOSPHORUS [4]: 11.28 mg/dL
POTASSIUM [4]: 7.05 MEQ/L
TOTAL BILIRUBIN [4]: 0.72 mg/dL
TOTAL PROTEIN [4]: 6.83 G/DL
BASOPHIL [5]: 0%
EOSINOPHIL [5]: 0%
ERYTHROCYTE COUNT [5]: 5.85 x10E6/uL
LEUKOCYTE COUNT [5]: 13.3 x10E3/uL
LYMPHOCYTE [5]: 81.67%
MEAN CORPUSCULAR HEMOGLOBIN [5]: 24.6 pg
MEAN CORPUSCULAR HEMOGLOBIN CONCENTRATION [5]: 40.7 G/DL
MEAN CORPUSCULAR VOLUME [5]: 60.33 fL
MONOCYTE [5]: 2.67%
NEUTROPHIL [5]: 15.67%
PLATELET COUNT [5]: 839 x10E3/uL
ALANINE AMINOTRANSFERASE [6]: 41.67 u/L
ALBUMIN [6]: 3.7 G/DL
ALKALINE PHOSPHATASE [6]: 316 u/L
ASPARTATE AMINOTRANSFERASE [6]: 67 u/L
BLOOD UREA NITROGEN [6]: 14.33 mg/dL
CREATININE [6]: 0.77 mg/dL
GLUCOSE [6]: 176.33 mg/dL
PHOSPHORUS [6]: 11.3 mg/dL
POTASSIUM [6]: 6.83 MEQ/L
SODIUM [6]: 150 MEQ/L
TOTAL BILIRUBIN [6]: 0.87 mg/dL
TOTAL PROTEIN [6]: 6.77 G/DL
BASOPHIL [7]: 0%
EOSINOPHIL [7]: 0.33%
ERYTHROCYTE COUNT [7]: 6.34 x10E6/uL
HEMATOCRIT [7]: 37.4%
HEMOGLOBIN [7]: 14.6 G/DL
LEUKOCYTE COUNT [7]: 11.93 x10E3/uL
LYMPHOCYTE [7]: 83%
MEAN CORPUSCULAR HEMOGLOBIN [7]: 23 pg
MEAN CORPUSCULAR HEMOGLOBIN CONCENTRATION [7]: 39.03 G/DL
MEAN CORPUSCULAR VOLUME [7]: 58.97 fL
NEUTROPHIL [7]: 14.33%
PLATELET COUNT [7]: 1027.67 x10E3/uL
ALANINE AMINOTRANSFERASE [8]: 42.67 u/L
ALKALINE PHOSPHATASE [8]: 411.33 u/L
ASPARTATE AMINOTRANSFERASE [8]: 68.33 u/L
BLOOD UREA NITROGEN [8]: 15.67 mg/dL
CHOLESTEROL [8]: 64.33 mg/dL
CREATINE PHOSPHOKINASE [8]: 121.67 u/L
CREATININE [8]: 0.63 mg/dL
PHOSPHORUS [8]: 10.87 mg/dL
POTASSIUM [8]: 6.6 MEQ/L
SODIUM [8]: 149.67 MEQ/L
TOTAL BILIRUBIN [8]: 0.73 mg/dL
TOTAL PROTEIN [8]: 6.7 G/DL
